Experimental findings from the OligoGym collection are described below.

HELM strings list units from the 5' end as sugar, base in round brackets, then linkage (d deoxyribose, r ribose, m 2'-O-methyl, p phosphodiester). Strings are as the collection lists them; they lack the last nucleoside at the 3' end of the tested compound. [moe] = 2'-O-(2-methoxyethyl) (MOE); [sp] = phosphorothioate linkage; [m5C] = 5-methylcytosine

In the data set the target is APP. The data set is described as follows: mouse, dose not given. The conditions noted are these: ASO.
For the substance “RNA1{[moe](G)[sp].[moe](A)[sp].[moe](T)p.[moe]([m5C])p.[moe](T)[sp].d(G)[sp].d(A)[sp].d(A)[sp].d(T)[sp].d([m5C])[sp].d([m5C])[sp].d([m5C])[sp].d(A)[sp].d([m5C])[sp].d(T)[sp].[moe](T)p.[moe]([m5C])p.[moe]([m5C])[sp].[moe]([m5C])}$$$$ (last 3' nucleoside missing)”, the 3 h FOB score is 0.25 score 0-7.
For “RNA1{[moe](A)[sp].[moe](T)p.[moe](G)p.[moe](T)p.[moe](G)p.[moe](A)[sp].d(T)[sp].d(T)[sp].d(T)[sp].d([m5C])[sp].d(A)[sp].d([m5C])[sp].d(T)[sp].d(A)[sp].d(A)[sp].d([m5C])[sp].[moe]([m5C])p.[moe](G)[sp].[moe](G)}$$$$ (last 3' nucleoside missing)” the value was 0 score 0-7; for “RNA1{[moe]([m5C])[sp].[moe](T)p.[moe](T)p.[moe]([m5C])p.[moe](T)[sp].d(G)[sp].d([m5C])[sp].d(A)[sp].d(A)[sp].d(A)[sp].d(G)[sp].d(A)[sp].d(A)[sp].d([m5C])[sp].d(A)[sp].[moe]([m5C])p.[moe]([m5C])p.[moe](A)[sp].[moe](A)}$$$$ (last 3' nucleoside missing)”, 0.5 score 0-7.
The same measure for “RNA1{[moe](G)[sp].[moe](T)p.[moe](G)p.[moe]([m5C])p.[moe](T)[sp].d(T)[sp].d(A)[sp].d(T)[sp].d(A)[sp].d(A)[sp].d([m5C])[sp].d(T)[sp].d([m5C])[sp].d(T)[sp].d([m5C])[sp].[moe](A)p.[moe](T)p.[moe](A)[sp].[moe]([m5C])}$$$$ (last 3' nucleoside missing)”: 1 score 0-7.
The same measure for “RNA1{[moe](T)[sp].[moe](G)p.[moe](G)p.[moe](T)p.[moe]([m5C])[sp].d(A)[sp].d(T)[sp].d([m5C])[sp].d(A)[sp].d(A)[sp].d([m5C])[sp].d(T)[sp].d(T)[sp].d(T)[sp].d(T)[sp].[moe](T)p.[moe](A)p.[moe](G)[sp].[moe](T)}$$$$ (last 3' nucleoside missing)”: 0 score 0-7; for “RNA1{[moe]([m5C])[sp].[moe](T)p.[moe](T)p.[moe](T)p.[moe](T)[sp].d(G)[sp].d(T)[sp].d(A)[sp].d(T)[sp].d([m5C])[sp].d(A)[sp].d(T)[sp].d(A)[sp].d(A)[sp].d(A)[sp].[moe](T)p.[moe](G)p.[moe](A)[sp].[moe](A)}$$$$ (last 3' nucleoside missing)”: 0.5 score 0-7; for “RNA1{[moe](G)[sp].[moe](G)p.[moe]([m5C])p.[moe](A)p.[moe](T)p.[moe]([m5C])[sp].d(A)[sp].d([m5C])[sp].d(T)[sp].d(T)[sp].d(A)[sp].d([m5C])[sp].d(A)[sp].d(A)[sp].d(A)[sp].d([m5C])[sp].[moe](T)p.[moe]([m5C])[sp].[moe](A)}$$$$ (last 3' nucleoside missing)”: 0 score 0-7.
In turn, “RNA1{[moe]([m5C])[sp].[moe]([m5C])p.[moe](T)p.[moe](T)p.[moe](G)[sp].d([m5C])[sp].d(T)[sp].d(A)[sp].d(T)[sp].d(T)[sp].d([m5C])[sp].d(A)[sp].d(T)[sp].d(T)[sp].d(T)[sp].[moe](T)p.[moe](T)p.[moe]([m5C])[sp].[moe](A)}$$$$ (last 3' nucleoside missing)” displayed a 3 h FOB score of 0 score 0-7.
For “RNA1{[moe](G)[sp].[moe]([m5C])p.[moe](G)p.[moe]([m5C])p.[moe](A)[sp].d(T)[sp].d(T)[sp].d(T)[sp].d(A)[sp].d([m5C])[sp].d(T)[sp].d(A)[sp].d(G)[sp].d([m5C])[sp].d(A)[sp].[moe]([m5C])p.[moe](A)p.[moe](T)[sp].[moe](T)}$$$$ (last 3' nucleoside missing)” the value was 1.67 score 0-7.
For “RNA1{[moe](T)[sp].[moe]([m5C])p.[moe](T)p.[moe]([m5C])p.[moe](T)[sp].d([m5C])[sp].d(A)[sp].d(T)[sp].d(A)[sp].d(G)[sp].d(T)[sp].d([m5C])[sp].d(T)[sp].d(T)[sp].d(A)[sp].[moe](A)p.[moe](T)p.[moe](T)[sp].[moe]([m5C])}$$$$ (last 3' nucleoside missing)”, the 3 h FOB score came to 0 score 0-7.
The same measure for “RNA1{[moe](T)[sp].[moe]([m5C])p.[moe](T)p.[moe](T)p.[moe]([m5C])[sp].d(A)[sp].d(A)[sp].d([m5C])[sp].d(T)[sp].d(T)[sp].d(A)[sp].d(G)[sp].d(T)[sp].d([m5C])[sp].d(A)[sp].[moe](T)p.[moe]([m5C])p.[moe]([m5C])[sp].[moe](T)}$$$$ (last 3' nucleoside missing)”: 0 score 0-7; for “RNA1{[moe](T)[sp].[moe](G)p.[moe](G)p.[moe]([m5C])p.[moe](T)[sp].d(T)[sp].d(A)[sp].d(T)[sp].d(G)[sp].d(A)[sp].d(T)[sp].d([m5C])[sp].d(T)[sp].d(A)[sp].d(T)[sp].[moe](A)p.[moe]([m5C])p.[moe](A)[sp].[moe]([m5C])}$$$$ (last 3' nucleoside missing)”: 1 score 0-7.
For “RNA1{[moe](T)[sp].[moe](T)p.[moe](G)p.[moe](A)p.[moe](T)[sp].d(G)[sp].d([m5C])[sp].d(A)[sp].d([m5C])[sp].d(A)[sp].d(T)[sp].d(A)[sp].d(T)[sp].d([m5C])[sp].d([m5C])[sp].[moe](A)p.[moe](G)p.[moe](G)[sp].[moe]([m5C])}$$$$ (last 3' nucleoside missing)” the value was 2 score 0-7; for “RNA1{[moe]([m5C])[sp].[moe](T)p.[moe](G)p.[moe](G)p.[moe](G)[sp].d(T)[sp].d(A)[sp].d([m5C])[sp].d(A)[sp].d(T)[sp].d(A)[sp].d(A)[sp].d(T)[sp].d(A)[sp].d([m5C])[sp].[moe](T)p.[moe](A)p.[moe](G)[sp].[moe](G)}$$$$ (last 3' nucleoside missing)”, 0 score 0-7; for “RNA1{[moe](G)[sp].[moe](T)p.[moe]([m5C])p.[moe]([m5C])p.[moe](A)[sp].d(T)[sp].d(T)[sp].d(A)[sp].d([m5C])[sp].d(A)[sp].d(A)[sp].d(A)[sp].d([m5C])[sp].d(A)[sp].d(A)[sp].[moe](G)p.[moe](T)p.[moe](A)[sp].[moe](A)}$$$$ (last 3' nucleoside missing)”, 1 score 0-7.
For “RNA1{[moe](T)[sp].[moe]([m5C])p.[moe](T)p.[moe](G)p.[moe](T)[sp].d(A)[sp].d(T)[sp].d(T)[sp].d(A)[sp].d(T)[sp].d(A)[sp].d([m5C])[sp].d(T)[sp].d([m5C])[sp].d(T)[sp].[moe](G)p.[moe](G)p.[moe](G)[sp].[moe]([m5C])}$$$$ (last 3' nucleoside missing)” the value was 2.5 score 0-7; for “RNA1{[moe](T)[sp].[moe]([m5C])p.[moe](A)p.[moe](T)p.[moe](T)[sp].d([m5C])[sp].d(T)[sp].d([m5C])[sp].d(A)[sp].d(T)[sp].d([m5C])[sp].d([m5C])[sp].d([m5C])[sp].d([m5C])[sp].d(A)[sp].[moe](G)p.[moe](G)p.[moe](T)[sp].[moe](G)}$$$$ (last 3' nucleoside missing)”, 0 score 0-7.
Turning to “RNA1{[moe]([m5C])[sp].[moe](T)p.[moe](T)p.[moe]([m5C])p.[moe](T)[sp].d(T)[sp].d(A)[sp].d(T)[sp].d([m5C])[sp].d(A)[sp].d(G)[sp].d([m5C])[sp].d(T)[sp].d(T)[sp].d(T)[sp].[moe](A)p.[moe](G)p.[moe](G)[sp].[moe]([m5C])}$$$$ (last 3' nucleoside missing)”, the 3 h FOB score is 1 score 0-7.
